Measured values taken from ChEMBL document CHEMBL3813616, “Discovery of novel 7-azaindoles as PDK1 inhibitors” (Bioorg Med Chem Lett, 2016).

What was measured:
[1] = molecular target: Insulin-like growth factor 1 receptor (Homo sapiens) (UniProt P08069); experiment: Inhibition of human IGF1R (954 to 1367 residues) assessed as enzyme activity at 1 uM using 33P ATP by radioactive filter binding assay; design: scale not given: the % may be the effect or the level left
[2] = molecular target: T1, Inhibitor of nuclear factor kappa-B kinase subunit beta (Homo sapiens) (UniProt O14920); experiment: Inhibition of human IKKbeta (1 to 736 residues) assessed as enzyme activity at 1 uM using 33P ATP by radioactive filter binding assay; design: scale not given: the % may be the effect or the level left
T1 sequence (whole entry): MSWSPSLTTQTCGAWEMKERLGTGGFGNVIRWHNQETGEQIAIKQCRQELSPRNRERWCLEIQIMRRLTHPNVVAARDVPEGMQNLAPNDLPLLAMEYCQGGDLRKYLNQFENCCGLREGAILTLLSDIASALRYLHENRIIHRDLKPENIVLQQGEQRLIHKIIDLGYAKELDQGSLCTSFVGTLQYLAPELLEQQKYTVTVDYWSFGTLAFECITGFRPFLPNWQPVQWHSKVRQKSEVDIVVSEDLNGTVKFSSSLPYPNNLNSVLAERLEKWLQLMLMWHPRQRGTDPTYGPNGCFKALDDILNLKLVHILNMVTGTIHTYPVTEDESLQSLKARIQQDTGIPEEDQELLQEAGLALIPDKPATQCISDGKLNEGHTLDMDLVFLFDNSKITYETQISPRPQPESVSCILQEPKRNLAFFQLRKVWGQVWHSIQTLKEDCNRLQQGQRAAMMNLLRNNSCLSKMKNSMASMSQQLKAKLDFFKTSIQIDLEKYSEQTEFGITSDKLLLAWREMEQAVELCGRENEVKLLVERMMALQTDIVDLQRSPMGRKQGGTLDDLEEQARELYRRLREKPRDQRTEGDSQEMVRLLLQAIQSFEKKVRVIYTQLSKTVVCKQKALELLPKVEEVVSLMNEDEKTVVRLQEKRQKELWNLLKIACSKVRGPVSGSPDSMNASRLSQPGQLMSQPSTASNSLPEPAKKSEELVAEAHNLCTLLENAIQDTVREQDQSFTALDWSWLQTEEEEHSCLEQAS

[3] = molecular target: T2, Eukaryotic elongation factor 2 kinase (Homo sapiens) (UniProt O00418); experiment: Inhibition of human EF2K (2 to 725 residues) assessed as enzyme activity at 1 uM using 33P ATP by radioactive filter binding assay; design: scale not given: the % may be the effect or the level left
T2 sequence (whole entry): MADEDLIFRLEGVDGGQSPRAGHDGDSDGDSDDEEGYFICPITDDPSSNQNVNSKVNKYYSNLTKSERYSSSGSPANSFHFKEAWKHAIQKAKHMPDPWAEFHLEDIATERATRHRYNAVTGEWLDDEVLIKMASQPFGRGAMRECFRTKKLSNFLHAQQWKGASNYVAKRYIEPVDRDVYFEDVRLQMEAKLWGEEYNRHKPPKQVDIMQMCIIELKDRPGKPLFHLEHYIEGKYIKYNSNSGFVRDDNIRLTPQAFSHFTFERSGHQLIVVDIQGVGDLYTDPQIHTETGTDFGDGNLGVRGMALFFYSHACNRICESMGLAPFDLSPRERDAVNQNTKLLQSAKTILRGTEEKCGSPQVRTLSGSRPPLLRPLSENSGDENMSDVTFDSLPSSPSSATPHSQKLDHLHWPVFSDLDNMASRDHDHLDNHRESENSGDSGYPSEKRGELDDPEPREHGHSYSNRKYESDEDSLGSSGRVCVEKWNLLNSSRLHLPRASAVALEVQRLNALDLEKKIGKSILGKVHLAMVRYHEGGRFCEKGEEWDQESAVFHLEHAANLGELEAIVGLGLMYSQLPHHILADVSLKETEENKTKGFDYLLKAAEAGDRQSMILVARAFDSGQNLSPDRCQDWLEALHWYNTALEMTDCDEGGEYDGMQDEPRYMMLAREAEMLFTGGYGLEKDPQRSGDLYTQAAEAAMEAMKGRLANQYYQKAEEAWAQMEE

[4] = molecular target: MAP kinase-interacting serine/threonine-protein kinase 2 (Homo sapiens) (UniProt Q9HBH9); experiment: Inhibition of human MNK2alpha (2 to 465 residues) assessed as enzyme activity at 1 uM using 33P ATP by radioactive filter binding assay; design: scale not given: the % may be the effect or the level left
Sequence of MAP kinase-interacting serine/threonine-protein kinase 2 (Homo sapiens) (Q9HBH9 whole entry, looked up, the tested form may be a part): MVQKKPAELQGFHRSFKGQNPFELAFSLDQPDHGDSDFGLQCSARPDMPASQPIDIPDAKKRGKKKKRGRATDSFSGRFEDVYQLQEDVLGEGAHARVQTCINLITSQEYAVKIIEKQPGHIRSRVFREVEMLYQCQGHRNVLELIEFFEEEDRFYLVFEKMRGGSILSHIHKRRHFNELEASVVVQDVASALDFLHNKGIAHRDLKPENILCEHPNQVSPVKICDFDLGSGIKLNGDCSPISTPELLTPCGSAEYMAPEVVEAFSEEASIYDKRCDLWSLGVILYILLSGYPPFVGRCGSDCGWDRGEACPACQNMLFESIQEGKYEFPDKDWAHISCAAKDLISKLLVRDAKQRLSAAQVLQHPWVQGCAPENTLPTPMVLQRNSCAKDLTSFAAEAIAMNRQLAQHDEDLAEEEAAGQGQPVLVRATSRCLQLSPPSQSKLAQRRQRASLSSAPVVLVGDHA

[5] = molecular target: T3, 3-phosphoinositide-dependent protein kinase 1 (Homo sapiens, UniProt O15530); experiment: Inhibition of human His6-tagged PDK1 using biotinylated PDKtide as substrate after 60 mins by topcount method
T3 sequence (O15530 whole entry): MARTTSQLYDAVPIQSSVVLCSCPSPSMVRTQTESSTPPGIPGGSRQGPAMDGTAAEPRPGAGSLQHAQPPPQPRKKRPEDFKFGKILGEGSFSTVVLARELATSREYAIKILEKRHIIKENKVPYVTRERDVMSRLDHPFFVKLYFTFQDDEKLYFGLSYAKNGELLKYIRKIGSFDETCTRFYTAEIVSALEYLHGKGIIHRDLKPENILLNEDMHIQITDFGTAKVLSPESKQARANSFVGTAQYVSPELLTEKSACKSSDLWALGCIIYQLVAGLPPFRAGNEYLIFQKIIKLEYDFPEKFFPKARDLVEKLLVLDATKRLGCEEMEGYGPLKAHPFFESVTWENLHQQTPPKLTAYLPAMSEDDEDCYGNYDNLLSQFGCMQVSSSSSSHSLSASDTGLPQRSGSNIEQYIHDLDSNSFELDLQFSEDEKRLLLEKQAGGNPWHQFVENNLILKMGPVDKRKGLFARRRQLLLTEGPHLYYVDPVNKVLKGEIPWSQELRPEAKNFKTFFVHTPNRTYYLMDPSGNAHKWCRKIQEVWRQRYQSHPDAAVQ

[6] = molecular target: T4, 3-phosphoinositide-dependent protein kinase 1 (Homo sapiens) (UniProt O15530); experiment: Inhibition of human PDK1 (52 to 556 residues) assessed as enzyme activity at 1 uM using 33P ATP by radioactive filter binding assay; design: scale not given: the % may be the effect or the level left
T4 sequence (whole entry): T3 sequence (O15530 whole entry)

[7] = molecular target: RAC-alpha serine/threonine-protein kinase (Homo sapiens) (UniProt P31749); experiment: Inhibition of human PKBalpha (118 to 480 residues) assessed as enzyme activity at 1 uM using 33P ATP by radioactive filter binding assay; design: scale not given: the % may be the effect or the level left
Sequence of RAC-alpha serine/threonine-protein kinase (Homo sapiens) (P31749 whole entry, the tested form may be a part): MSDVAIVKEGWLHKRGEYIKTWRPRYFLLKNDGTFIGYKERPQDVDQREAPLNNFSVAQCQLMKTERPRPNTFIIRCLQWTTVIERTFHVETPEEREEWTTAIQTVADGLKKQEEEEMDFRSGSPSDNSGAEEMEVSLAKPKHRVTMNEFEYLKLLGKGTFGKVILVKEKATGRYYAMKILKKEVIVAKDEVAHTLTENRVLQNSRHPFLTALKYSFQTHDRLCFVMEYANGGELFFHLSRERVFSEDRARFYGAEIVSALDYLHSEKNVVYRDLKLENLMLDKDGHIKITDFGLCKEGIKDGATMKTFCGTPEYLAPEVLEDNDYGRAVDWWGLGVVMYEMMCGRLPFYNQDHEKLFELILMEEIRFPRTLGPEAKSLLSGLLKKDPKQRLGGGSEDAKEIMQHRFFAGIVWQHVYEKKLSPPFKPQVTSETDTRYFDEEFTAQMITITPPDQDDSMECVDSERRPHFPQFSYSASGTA

[8] = molecular target: Aurora kinase B (Homo sapiens) (UniProt Q96GD4); experiment: Inhibition of human Aurora B (1 to 344 residues) assessed as enzyme activity at 1 uM using 33P ATP by radioactive filter binding assay; design: scale not given: the % may be the effect or the level left
Sequence of Aurora kinase B (Homo sapiens) (Q96GD4 whole entry, the tested form may be a part): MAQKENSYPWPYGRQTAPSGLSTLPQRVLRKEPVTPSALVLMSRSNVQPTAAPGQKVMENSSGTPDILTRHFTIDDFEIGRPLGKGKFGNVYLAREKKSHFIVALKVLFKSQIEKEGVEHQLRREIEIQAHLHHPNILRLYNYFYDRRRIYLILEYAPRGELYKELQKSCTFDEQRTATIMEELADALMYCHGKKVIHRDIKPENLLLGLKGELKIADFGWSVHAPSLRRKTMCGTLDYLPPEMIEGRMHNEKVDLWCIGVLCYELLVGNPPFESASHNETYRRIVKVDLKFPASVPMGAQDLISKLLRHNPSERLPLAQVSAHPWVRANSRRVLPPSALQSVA

Sequence of Insulin-like growth factor 1 receptor (Homo sapiens) (P08069 31-736 limits assumed): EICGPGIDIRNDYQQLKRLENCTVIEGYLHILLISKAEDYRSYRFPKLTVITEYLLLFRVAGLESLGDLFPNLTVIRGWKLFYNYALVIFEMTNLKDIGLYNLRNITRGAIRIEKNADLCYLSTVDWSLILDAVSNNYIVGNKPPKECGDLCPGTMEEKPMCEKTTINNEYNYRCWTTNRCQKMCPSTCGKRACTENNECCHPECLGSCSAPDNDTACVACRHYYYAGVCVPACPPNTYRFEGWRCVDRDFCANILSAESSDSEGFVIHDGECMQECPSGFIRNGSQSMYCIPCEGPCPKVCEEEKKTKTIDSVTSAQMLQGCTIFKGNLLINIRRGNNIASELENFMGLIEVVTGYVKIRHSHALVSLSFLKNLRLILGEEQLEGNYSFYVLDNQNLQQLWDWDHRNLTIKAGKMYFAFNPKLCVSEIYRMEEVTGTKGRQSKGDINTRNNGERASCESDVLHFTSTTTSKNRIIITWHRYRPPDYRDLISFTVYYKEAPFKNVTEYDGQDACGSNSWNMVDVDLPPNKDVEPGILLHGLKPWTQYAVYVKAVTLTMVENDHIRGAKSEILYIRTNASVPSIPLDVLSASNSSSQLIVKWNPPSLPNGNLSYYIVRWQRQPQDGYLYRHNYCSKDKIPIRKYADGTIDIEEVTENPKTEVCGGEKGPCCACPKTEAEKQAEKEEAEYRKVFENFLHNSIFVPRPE
Sequence of Insulin-like growth factor 1 receptor (Homo sapiens) (P08069 741-1367 limits assumed): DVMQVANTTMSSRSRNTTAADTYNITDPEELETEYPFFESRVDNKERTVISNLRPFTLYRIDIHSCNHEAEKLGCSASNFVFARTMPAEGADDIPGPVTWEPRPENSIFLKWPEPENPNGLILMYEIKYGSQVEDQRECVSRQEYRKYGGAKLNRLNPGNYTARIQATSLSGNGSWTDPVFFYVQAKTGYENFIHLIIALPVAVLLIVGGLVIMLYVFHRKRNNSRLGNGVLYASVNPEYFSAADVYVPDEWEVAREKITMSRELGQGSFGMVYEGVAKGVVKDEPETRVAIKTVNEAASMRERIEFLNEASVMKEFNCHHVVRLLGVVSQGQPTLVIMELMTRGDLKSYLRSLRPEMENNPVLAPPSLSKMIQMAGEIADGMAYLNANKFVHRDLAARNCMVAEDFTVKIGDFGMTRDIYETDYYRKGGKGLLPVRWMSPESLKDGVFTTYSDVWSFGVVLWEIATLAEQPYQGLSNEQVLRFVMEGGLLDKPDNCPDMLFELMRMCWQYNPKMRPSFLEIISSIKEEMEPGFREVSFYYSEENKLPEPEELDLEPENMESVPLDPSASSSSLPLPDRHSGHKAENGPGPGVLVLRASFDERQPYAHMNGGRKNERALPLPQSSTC

| SMILES | Activity [1] [%] | Activity [2] [%] | Activity [3] [%] | Activity [4] [%] | IC50 [5] [µM] | Activity [6] [%] | Activity [7] [%] | Activity [8] [%] |
| --- | --- | --- | --- | --- | --- | --- | --- | --- |
| CCc1cc(-c2c[nH]c3ncc(-c4cnn(C5CCNCC5)c4)cc23)nc(N)n1 | -34 | -46 | 3 | -49 | 0.058 | -80 | -10 |  |
| CCCCc1cc(-c2c[nH]c3ncccc23)nc(N)n1 |  | -27 | -1 | -15 | 1.1 | -54 | -23 | -16 |
| CCCCc1cc(-c2c[nH]c3ncc(-c4cnn(C5CCNCC5)c4)cc23)nc(N)n1 | -27 | -63 | -31 | -42 | 0.084 | -92 | -9 | -62 |
| Nc1nccc(-c2c[nH]c3ncccc23)n1 [MERIOLIN 1] | -2 | -45 | -20 | -35 | 5.9 | -12 | -23 | -31 |
